Source: ChEMBL document CHEMBL1128660, “Synthesis and fungicidal activity of 2,2-bipyridine derivatives” (1995)

Legend:
Assay type in all cases: functional
Blumeria graminis [1] = experiment: The fungicidal activity (percent disease control) under greenhouse conditions against Wheat powdery mildew (Erisyphe graminis) at 200 ppm at 200 ppm; shows curative effect
Pyricularia grisea [2] = experiment: Fungicidal activity under greenhouse conditions against Rice blast (Pyricularia oryzae) at 200 ppm
Phytophthora infestans = experiment: Fungicidal activity under greenhouse conditions against Tomato late blight (Phtyopthora infestans) at 200 ppm
Thanatephorus cucumeris = experiment: Fungicidal activity under greenhouse conditions against Rice sheath blight (Rhizoctonia solani) at 200 ppm
Parastagonospora nodorum [3] = experiment: The fungicidal activity (percent disease control) under greenhouse conditions against Wheat septoria (Septoria nodorum) at 40 ppm
Puccinia recondita [4] = experiment: Fungicidal activity under greenhouse conditions against Wheat leaf rust (Puccinia recondita) at 200 ppm
Botrytis cinerea [5] = experiment: Fungicidal activity (under greenhouse conditions against Cucumber botrytis (Botrytis cinerea) at 200 ppm
Oculimacula yallundae [6] = experiment: Fungicidal activity under greenhouse conditions against Wheat foot rot (Pseudocercosporella herpotrichoides) at 200 ppm.
Parastagonospora nodorum [7] = experiment: The fungicidal activity (percent disease control) under greenhouse conditions against Wheat septoria (Septoria nodorum) at 200 ppm
Plasmopara viticola [8] = experiment: The fungicidal activity (percent disease control) under greenhouse conditions against Grape downy mildew (Plasmopara viticola) at 40 ppm
Blumeria graminis [9] = experiment: Fungicidal activity under greenhouse conditions against Wheat powdery mildew (Erisyphe graminis) at 200 ppm at 200 ppm
Parastagonospora nodorum [10] = experiment: The fungicidal activity (percent disease control) under greenhouse conditions against Wheat septoria (Septoria nodorum) at 200 ppm; shows curative effect
Puccinia recondita [11] = experiment: The fungicidal activity (percent disease control) under greenhouse conditions against Wheat leaf rust (Puccinia recondita) at 200 ppm; shows curative effect
Parastagonospora nodorum [12] = experiment: The fungicidal activity (percent disease control) under greenhouse conditions against Wheat septoria (Septoria nodorum) at 40 ppm; shows curative effect
Plasmopara viticola [13] = experiment: The fungicidal activity (percent disease control) under greenhouse conditions against Grape downy mildew (Plasmopara viticola) at 200 ppm
Pyricularia grisea [14] = experiment: The fungicidal activity (percent disease control) under greenhouse conditions against Rice blast (Pyricularia oryzae) at 200 ppm; shows curative effect
Puccinia recondita [15] = experiment: The fungicidal activity (percent disease control) under greenhouse conditions against Wheat leaf rust (Puccinia recondita) at 40 ppm; shows curative effect
Oculimacula yallundae [16] = experiment: The fungicidal activity (percent disease control) under greenhouse conditions against Wheat foot rot (Pseudocercosporella herpotrichoides) at 40 ppm
Botrytis cinerea [17] = experiment: The fungicidal activity (percent disease control) under greenhouse conditions against Cucumber botrytis (Botrytis cinerea) at 40 ppm
Blumeria graminis [18] = experiment: The fungicidal activity (percent disease control) under greenhouse conditions against Wheat powdery mildew (Erisyphe graminis) at 40 ppm […]
Puccinia recondita [19] = experiment: The fungicidal activity (percent disease control) under greenhouse conditions against Wheat leaf rust (Puccinia recondita) at 40 ppm
Blumeria graminis [20] = experiment: The fungicidal activity (percent disease control) under greenhouse conditions against Wheat powdery mildew (Erisyphe graminis) at 40 ppm; shows curative effect

Row | Structure (SMILES) | Disease control (Blumeria graminis [1]) [%] | Disease control (Pyricularia grisea [2]) [%] | Disease control (Phytophthora infestans) [%] | Disease control (Thanatephorus cucumeris) [%] | Disease control (Puccinia recondita [4]) [%] | Disease control (Botrytis cinerea [5]) [%] | Disease control (Oculimacula yallundae [6]) [%] | Disease control (Parastagonospora nodorum [7]) [%] | Disease control (Blumeria graminis [9]) [%] | Disease control (Parastagonospora nodorum [12]) [%] | also measured
1 | COc1ccccc1-c1ccnc(-c2ccccn2)c1 | 93 | 32 | 24 | 0 | 85 | 0 | 0 | – | – | – | Disease control (Parastagonospora nodorum [3]): 27%
2 | COc1ccc(-c2ccc(-c3ccccn3)nc2)cc1 | – | 97 | 0 | 19 | 93 | 0 | 75 | 40 | 92 | – | Disease control (Plasmopara viticola [8]): 65%
3 | Cc1ccc(-c2ccc(-c3ccccn3)nc2)cc1 | 99 | 32 | 0 | 0 | – | 59 | 0 | – | – | – | Disease control (Parastagonospora nodorum [10]): 95%; Disease control (Puccinia recondita [11]): 84%
4 | Clc1ccc(-c2ccc(-c3ccccn3)nc2)cc1 | 99 | 97 | 0 | 100 | 65 | 0 | 81 | 98 | – | – | Disease control (Plasmopara viticola [8]): 50%
5 | Brc1ccc(-c2ccc(-c3ccccn3)nc2)cc1 | 19 | 0 | 0 | 0 | 20 | 0 | 0 | – | – | 58 | –
6 | c1ccc(-c2ccc(-c3ccccn3)nc2)cc1 | 100 | – | 23 | 0 | – | 45 | 0 | 100 | – | – | Disease control (Plasmopara viticola [13]): 96%; Disease control (Pyricularia grisea [14]): 87%; Disease control (Puccinia recondita [15]): 60%
7 | CCCCCCCCCCCCc1ccnc(-c2cc(CCCCCCCCCCCC)ccn2)c1 | – | 0 | 0 | 0 | – | 0 | 0 | – | 0 | – | –
8 | CCCCc1ccnc(-c2cc(CCCC)ccn2)c1 | – | 85 | 0 | 93 | 33 | 0 | 44 | – | 21 | – | –
9 | O=[N+]([O-])c1ccccc1-c1ccnc(-c2ccccn2)c1 | – | 32 | 24 | 0 | 67 | 41 | 0 | – | 0 | 76 | –
10 | CCCCCc1ccnc(-c2cc(CCCCC)ccn2)c1 | – | 27 | 0 | 93 | 90 | 0 | 0 | – | 92 | – | –
11 | c1ccc(-c2ccnc(-c3ccccn3)c2)cc1 | 95 | 74 | 0 | 0 | – | 0 | 0 | – | – | 94 | Disease control (Plasmopara viticola [13]): 96%; Disease control (Puccinia recondita [15]): 11%
12 | Cc1ccc(-c2ccccn2)nc1 | – | 0 | 0 | 0 | 0 | 0 | 0 | 0 | 24 | – | Disease control (Plasmopara viticola [13]): 0%
13 | Cc1ccnc(-c2cc(-c3ccccc3)ccn2)c1 | – | 53 | 0 | 81 | 99 | 30 | 66 | – | 99 | 19 | –
14 | O=[N+]([O-])c1ccc(-c2ccc(-c3ccccn3)nc2)cc1 | – | 0 | 0 | 0 | 0 | 0 | 0 | 0 | 0 | – | Disease control (Plasmopara viticola [13]): 60%
15 | CC(C)c1ccnc(-c2cc(C(C)C)ccn2)c1 | – | 67 | 0 | 73 | – | 0 | 12 | – | 38 | – | –
16 | Fc1ccc(-c2ccc(-c3ccccn3)nc2)cc1 | 55 | 32 | 24 | 100 | 64 | 0 | – | – | – | 32 | Disease control (Oculimacula yallundae [16]): 27%
17 | Cc1ccnc(-c2ccc(-c3ccccc3)cn2)c1 | – | 32 | 0 | 0 | 93 | – | 69 | – | – | 96 | Disease control (Botrytis cinerea [17]): 28%; Disease control (Blumeria graminis [18]): 47%
18 | c1ccc(OCc2ccc(-c3ccccn3)nc2)cc1 | – | 0 | 0 | 0 | 0 | 0 | 0 | 0 | 11 | – | –
19 | COc1ccccc1-c1ccnc(-c2cc(C)ccn2)c1 | – | 53 | 0 | 81 | – | 0 | 86 | – | – | 12 | Disease control (Puccinia recondita [19]): 19%; Disease control (Blumeria graminis [20]): 30%
